Assay results: PMC4521081, “Thiophenecarboxamide Derivatives Activated by EthA Kill Mycobacterium tuberculosis by Inhibiting the CTP Synthetase PyrG” (Chemistry & Biology, 2015)
In brackets after ≈: the same amount, converted by molar mass.

How the values were obtained:
[1] = test system: M. tuberculosis pyrG mutant 88.7 (V186G); format: cell-based, Mycobacterium tuberculosis
[2] = test system: M. tuberculosis 82.22 (ethA ΔT-94, pyrG V186G); format: cell-based, Mycobacterium tuberculosis
[3] = test system: M. tuberculosis ethA mutant 81.10 (Δ1109–1137); format: cell-based, Mycobacterium tuberculosis
[4] = test system: M. tuberculosis 88.10 (pyrG V186G); format: cell-based, Mycobacterium tuberculosis
[5] = test system: M. tuberculosis 82.19 (ethA L129P, pyrG V186G); format: cell-based, Mycobacterium tuberculosis
[6] = test system: M. tuberculosis 82.14 (ethA W45R, pyrG V186G); format: cell-based, Mycobacterium tuberculosis
PyrG V186G mutant = PyrG V186G mutant (Mycobacterium tuberculosis, UniProt P9WHK7, V186G); format: biochemical, M. tuberculosis

Compound	MIC [1]	MIC [2]	MIC [3]	MIC [4]	MIC [5]	MIC [6]	resistance of 81.10 mutant (mutated in ethA gene) [3]	% of inhibition at 200 M PyrG V186G mutant (PyrG V186G mutant)	activity against PyrG V186G mutant (PyrG V186G mutant)
CCc1cc(C(N)=S)ccn1 [ETH, ethionamide, reference compound]	0.5 µg/mL (≈ 3.01 µM)	10 µg/mL (≈ 60.2 µM)	10 µg/mL (≈ 60.2 µM)	0.5 µg/mL (≈ 3.01 µM)	10 µg/mL (≈ 60.2 µM)	10 µg/mL (≈ 60.2 µM)	–	–	–
O=C(CCc1ccccc1)NC(=S)Nc1ccc(N2CCCCC2)cc1 [compound 7904688, 3-phenyl-N-[(4-piperidin-1-ylphenyl)carbamothioyl]propanamide]	10 µg/mL (≈ 27.2 µM)	>40 µg/mL	>40 µg/mL	10 µg/mL (≈ 27.2 µM)	>40 µg/mL	>40 µg/mL	–	–	–
Cc1ccc(C(=O)Nc2ccc([N+](=O)[O-])cc2)s1 [compound 7947882, 5-methyl-N-(4-nitrophenyl)thiophene-2-carboxamide]	–	>40 µg/mL	–	5 to 10 µg/mL	>40 µg/mL	>40 µg/mL	–	–	–
Cc1ccc(C(=O)O)s1 [compound 11326028, 5-methylthiophene-2-carboxylic acid]	> 8 µg/mL	–	–	–	–	–	resistant	–	–
COc1ccc(NC(=O)c2cc([N+](=O)[O-])c(C)s2)cc1OC [compound 11326054]	> 8 µg/mL	–	–	–	–	–	resistant	–	–
CC1=CC=C(C(=O)Nc2ccc([N+](=O)[O-])cc2)S1(=O)=O [compound 11426026]	2.5 µg/mL (≈ 8.5 µM)	–	1 µg/mL (≈ 3.4 µM)	–	–	–	–	18.3 ± 1.5%	not active
